Assay results from patent US10052320B2, “Substituted quinoxalines as FGFR kinase inhibitors” (ASTEX THERAPEUTICS LIMITED, priority 2011, dated 2018).
Where two headings read alike, the source gives them in different places.

What was measured:
KDR (h) (VEGFR2) = KDR (h) (VEGFR2) (Homo sapiens, UniProt P35968); test: KDR (VEGFR2) (enzymatic assay), TR-FRET; format: biochemical
Protocol: KDR (VEGFR2) (Enzymatic Assay)
In a final reaction volume of 30 μL, KDR (h) (150 ng/ml) was incubated with 50 mM HEPES pH 7.5, 6 mM MnCl2, 1 mM DTT, 0.1 mM Na3VO4, 0.01% Triton-X-100, 500 nM Btn-Flt3 and 3 μM ATP in the presence of compound (1% DMSO final). After incubation for 120 minutes at room temperature the reaction was stopped with 2.27 nM EU-anti P-Tyr, 7 mM EDTA, 31.25 nM SA-XL-665 and 0.02% BSA which was present for 60 minutes at room temperature. Time-Resolved Fluorescence Resonance Energy Transfer (TR-FRET) signal (ex340 nm. Em 620 nm, em 655 nm) was measured afterwards and results are expressed in RFU (Relative Fluorescence Units).

[1] = molecular target: Ba/F3-KDR-transfected cells (Homo sapiens, UniProt P35968); test: Ba/F3-KDR (minus IL3) cellular proliferation assay, Alamar Blue; format: cell-based
Protocol: Ba/F3-KDR (Minus IL3 or Plus IL3) (Cellular Proliferation Assay)
(§1) In a 384 well plate, 100 nl of compound dilution in DMSO was sprayed before adding 50 μl cell culture medium (phenol red free RPMI-1640, 10% FBS, 2 mM L-Glutamine and 50 μg/ml Gentamycin) containing 20000 cells per well of Ba/F3-KDR-transfected cells. Cells were put in an incubator at 37° C. and 5% CO2. After 24 hours, 10 μl of Alamar Blue solution (0.5 mM K3Fe(CN)6, 0.5 mM KaFe(CN)6, 0.15 mM Resazurin and 100 mM Phosphate Buffer) was added to the wells, incubated for 4 hours at 37° C. and 5% CO2 before RFU's (Relative Fluorescence Units) (ex. 540 nm., em. 590 nm.) were measured in a flurorescence plate reader.
(§2) As a counterscreen the same experiment was performed in the presence of 10 ng/ml murine IL3.
as §1, with “a 96” for “a 384”, “plate, 180” for “plate, 100 nl of compound dilution in DMSO was sprayed before adding 50”, “containing 10000” for “containing 20000”, “Ba/F3-KDR-transfected cells were pipette and 20 μl of compound dilution in DMSO was added.” for “Ba/F3-KDR-transfected cells.”, “hours, 40” for “hours, 10”, “CO2” for “CO2 before”

[2] = molecular target: T1, Ba/F3-Flt3-transfected cells (Homo sapiens, UniProt P36888, cells depend on it, form not given); test: Ba/F3-Flt3 (minus IL3) cellular proliferation assay, Alamar Blue; format: cell-based
T1 sequence (P36888 1-993): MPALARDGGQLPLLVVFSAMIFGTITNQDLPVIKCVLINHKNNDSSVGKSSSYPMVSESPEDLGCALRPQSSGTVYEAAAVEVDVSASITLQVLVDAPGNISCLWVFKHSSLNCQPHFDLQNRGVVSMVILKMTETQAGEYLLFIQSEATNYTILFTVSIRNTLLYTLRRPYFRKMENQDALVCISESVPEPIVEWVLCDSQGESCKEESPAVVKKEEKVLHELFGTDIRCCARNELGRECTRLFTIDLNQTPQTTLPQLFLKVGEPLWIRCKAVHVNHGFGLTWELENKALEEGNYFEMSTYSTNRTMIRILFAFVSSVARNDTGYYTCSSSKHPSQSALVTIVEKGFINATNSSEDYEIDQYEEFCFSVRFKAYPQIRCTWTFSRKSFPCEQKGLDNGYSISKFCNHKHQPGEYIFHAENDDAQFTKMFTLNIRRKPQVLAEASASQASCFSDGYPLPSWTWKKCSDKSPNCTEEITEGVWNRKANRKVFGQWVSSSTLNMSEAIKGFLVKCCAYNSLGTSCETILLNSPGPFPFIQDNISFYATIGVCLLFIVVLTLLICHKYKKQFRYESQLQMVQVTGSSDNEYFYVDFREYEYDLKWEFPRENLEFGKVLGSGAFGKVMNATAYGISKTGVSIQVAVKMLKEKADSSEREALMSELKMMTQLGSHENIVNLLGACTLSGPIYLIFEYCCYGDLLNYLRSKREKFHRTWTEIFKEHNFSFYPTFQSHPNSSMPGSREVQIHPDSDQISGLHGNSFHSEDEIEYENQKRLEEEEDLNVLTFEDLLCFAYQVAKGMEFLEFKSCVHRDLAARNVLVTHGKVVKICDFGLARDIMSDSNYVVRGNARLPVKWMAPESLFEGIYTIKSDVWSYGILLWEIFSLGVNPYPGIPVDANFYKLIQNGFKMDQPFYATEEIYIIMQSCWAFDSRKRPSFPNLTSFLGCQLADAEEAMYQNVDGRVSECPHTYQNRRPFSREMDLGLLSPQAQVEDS
Protocol: (§3) Ba/F3-Flt3 (Minus IL3 or Plus IL3) (Cellular Proliferation Assay)
Cells were put in an incubator at 37° C. and 5% CO2. After 24 hours, 10 μl of Alamar Blue solution (0.5 mM K3Fe(CN)6, 0.5 mM KaFe(CN)6, 0.15 mM Resazurin and 100 mM Phosphate Buffer) was added to the wells, incubated for 4 hours at 37° C. and 5% CO2 before RFU's (Relative Fluorescence Units) (ex. 540 nm., em. 590 nm.) were measured in a flurorescence plate reader. […]
as §1, with “a 96” for “a 384”, “plate, 180” for “plate, 100 nl of compound dilution in DMSO was sprayed before adding 50”, “containing 10000” for “containing 20000”, “of Ba/F3-Flt3-transfected cells were pipette and 20 μl of compound dilution in DMSO was added.” for “of Ba/F3-KDR-transfected cells.”, “hours, 40” for “hours, 10”

[3] = tested on: Ba/F3-Flt3-transfected cells in the presence of 10 ng/ml murine IL3; test: Ba/F3-Flt3 (plus IL3) cellular proliferation counterscreen, Alamar Blue; format: cell-based; details: Mus musculus, read-out: BAF3-FLT3 (PLUS IL3) 96 well pIC50 (converted)
[4] = tested on: Ba/F3-FGFR1-transfected cells in the presence of 10 ng/ml murine IL3; test: Ba/F3-FGFR1 (plus IL3) cellular proliferation counterscreen, Alamar Blue; format: cell-based; details: Mus musculus; plus IL3, 384 well; read-out: BAF3-FGFR 1 (PLUS IL3) 384 well pIC50 (converted)
Protocol: Ba/F3-FGFR1 (Minus IL3 or Plus IL3) (Cellular Proliferation Assay)
as §1, with “Ba/F3-FGFR1-transfected” for “Ba/F3-KDR-transfected”
as §2
as §1, with “a 96” for “a 384”, “plate, 180” for “plate, 100 nl of compound dilution in DMSO was sprayed before adding 50”, “containing 10000” for “containing 20000”, “of Ba/F3-FGFR1-transfected cells were pipette and 20 μl of compound dilution in DMSO was added.” for “of Ba/F3-KDR-transfected cells.”, “hours, 40” for “hours, 10”

[5] = tested on: Ba/F3-Flt3-transfected cells in the presence of 10 ng/ml murine IL3; test: Ba/F3-Flt3 (plus IL3) cellular proliferation counterscreen, Alamar Blue; format: cell-based; details: Mus musculus; plus 10 ng/ml murine IL3; read-out: BAF3-FLT3 (PLUS IL3) 384 well pIC50 (converted)
Protocol: as §3
as §1, with “Ba/F3-Flt3-transfected” for “Ba/F3-KDR-transfected”
as §2
as §1, with “a 96” for “a 384”, “plate, 180” for “plate, 100 nl of compound dilution in DMSO was sprayed before adding 50”, “containing 10000” for “containing 20000”, “of Ba/F3-Flt3-transfected cells were pipette and 20 μl of compound dilution in DMSO was added.” for “of Ba/F3-KDR-transfected cells.”, “hours, 40” for “hours, 10”

KDR (h) (VEGFR2), sequence (P35968 20-1356): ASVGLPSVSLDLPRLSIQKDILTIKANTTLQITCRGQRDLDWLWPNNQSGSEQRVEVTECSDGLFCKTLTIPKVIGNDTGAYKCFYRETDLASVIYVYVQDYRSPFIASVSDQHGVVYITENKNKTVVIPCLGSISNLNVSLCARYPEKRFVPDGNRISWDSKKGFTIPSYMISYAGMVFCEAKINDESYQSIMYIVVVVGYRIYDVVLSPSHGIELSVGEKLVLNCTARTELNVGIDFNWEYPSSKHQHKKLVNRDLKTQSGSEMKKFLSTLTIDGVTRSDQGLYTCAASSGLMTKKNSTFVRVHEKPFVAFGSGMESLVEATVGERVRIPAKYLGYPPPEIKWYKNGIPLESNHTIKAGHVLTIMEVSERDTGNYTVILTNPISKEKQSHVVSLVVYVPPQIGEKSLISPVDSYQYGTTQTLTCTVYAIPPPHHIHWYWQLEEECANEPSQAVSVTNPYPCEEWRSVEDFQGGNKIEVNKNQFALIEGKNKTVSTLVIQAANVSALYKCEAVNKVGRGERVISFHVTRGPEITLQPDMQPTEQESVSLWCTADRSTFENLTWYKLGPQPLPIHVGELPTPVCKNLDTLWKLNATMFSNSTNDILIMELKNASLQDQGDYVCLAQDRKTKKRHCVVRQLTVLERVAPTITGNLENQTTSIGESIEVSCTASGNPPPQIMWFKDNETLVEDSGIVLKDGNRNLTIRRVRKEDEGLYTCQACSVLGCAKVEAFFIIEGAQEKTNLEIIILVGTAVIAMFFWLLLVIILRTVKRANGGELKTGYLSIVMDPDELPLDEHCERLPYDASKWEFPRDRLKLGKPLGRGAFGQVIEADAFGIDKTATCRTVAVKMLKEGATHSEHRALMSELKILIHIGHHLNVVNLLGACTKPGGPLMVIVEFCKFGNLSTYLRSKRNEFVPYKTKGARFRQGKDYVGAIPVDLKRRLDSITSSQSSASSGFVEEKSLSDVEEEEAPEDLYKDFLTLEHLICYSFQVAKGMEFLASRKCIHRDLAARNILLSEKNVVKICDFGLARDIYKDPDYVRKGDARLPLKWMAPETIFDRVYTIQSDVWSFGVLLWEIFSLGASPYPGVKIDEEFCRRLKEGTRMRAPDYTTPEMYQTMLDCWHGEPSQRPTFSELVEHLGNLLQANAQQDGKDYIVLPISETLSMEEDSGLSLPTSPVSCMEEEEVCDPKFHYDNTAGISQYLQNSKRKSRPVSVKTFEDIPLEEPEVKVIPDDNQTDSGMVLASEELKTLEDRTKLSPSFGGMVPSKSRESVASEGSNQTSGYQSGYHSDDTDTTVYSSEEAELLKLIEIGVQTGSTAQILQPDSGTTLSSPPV
Ba/F3-KDR-transfected cells, sequence (P35968 whole entry, change not shown): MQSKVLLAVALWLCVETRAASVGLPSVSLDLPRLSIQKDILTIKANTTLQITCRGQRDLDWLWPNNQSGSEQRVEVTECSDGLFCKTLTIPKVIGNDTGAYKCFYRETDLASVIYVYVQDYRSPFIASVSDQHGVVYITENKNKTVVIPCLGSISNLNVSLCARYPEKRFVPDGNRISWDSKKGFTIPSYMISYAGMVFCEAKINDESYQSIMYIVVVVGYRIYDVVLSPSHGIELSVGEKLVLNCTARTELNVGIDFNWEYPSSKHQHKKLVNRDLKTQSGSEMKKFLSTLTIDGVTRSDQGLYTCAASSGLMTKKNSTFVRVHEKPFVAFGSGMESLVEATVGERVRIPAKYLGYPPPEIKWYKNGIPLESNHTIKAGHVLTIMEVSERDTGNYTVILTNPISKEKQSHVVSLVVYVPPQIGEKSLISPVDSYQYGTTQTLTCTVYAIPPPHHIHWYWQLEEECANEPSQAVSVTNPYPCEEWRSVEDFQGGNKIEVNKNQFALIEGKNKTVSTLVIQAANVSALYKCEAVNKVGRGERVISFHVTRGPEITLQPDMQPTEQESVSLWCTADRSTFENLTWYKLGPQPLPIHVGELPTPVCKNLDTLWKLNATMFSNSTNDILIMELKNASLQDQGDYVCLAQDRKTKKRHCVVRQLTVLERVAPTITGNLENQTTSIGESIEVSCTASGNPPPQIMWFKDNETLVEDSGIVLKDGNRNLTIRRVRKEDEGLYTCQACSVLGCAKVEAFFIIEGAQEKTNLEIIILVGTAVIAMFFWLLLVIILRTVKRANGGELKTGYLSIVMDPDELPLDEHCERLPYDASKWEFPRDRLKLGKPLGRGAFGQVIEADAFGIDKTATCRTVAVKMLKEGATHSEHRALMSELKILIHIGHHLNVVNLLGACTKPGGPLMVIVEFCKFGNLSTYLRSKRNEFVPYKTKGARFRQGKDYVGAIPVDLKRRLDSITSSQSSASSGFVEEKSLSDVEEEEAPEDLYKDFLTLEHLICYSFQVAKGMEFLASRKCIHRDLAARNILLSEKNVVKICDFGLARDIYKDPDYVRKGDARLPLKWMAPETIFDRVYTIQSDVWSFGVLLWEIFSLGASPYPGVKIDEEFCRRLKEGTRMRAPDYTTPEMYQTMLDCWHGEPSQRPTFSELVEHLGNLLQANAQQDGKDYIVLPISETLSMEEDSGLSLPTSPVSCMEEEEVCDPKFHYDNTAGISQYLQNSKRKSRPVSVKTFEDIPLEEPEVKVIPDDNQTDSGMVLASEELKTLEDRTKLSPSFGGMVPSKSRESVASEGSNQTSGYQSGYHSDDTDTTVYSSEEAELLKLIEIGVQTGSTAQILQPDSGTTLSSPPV

SMILES | IC50 (KDR (h) (VEGFR2)) | BAF3-KDR (MIN IL3) 384 well pIC50 ([1]; minus IL3, 384 well) | BAF3-FLT3 (MIN IL3) 96 well pIC50 ([2]; minus IL3, 96 well) | BAF3-FLT3 (MIN IL3) 384 well pIC50 ([2]; minus IL3, 384 well) | melting point | IC50 ([3]; plus IL3, 96 well) | BAF3-KDR (MIN IL3) 96 well pIC50 ([1]; minus IL3) | BAF3-KDR (MIN IL3) 384 well pIC50 ([1]; minus IL3) | BAF3-FLT3 (MIN IL3) 96 well pIC50 ([2]; minus IL3) | BAF3-FLT3 (MIN IL3) 384 well pIC50 ([2]; minus IL3) | IC50 ([3]; plus 10 ng/ml murine IL3) | IC50 [4] | IC50 [5]
COc1cc(OC)cc(N(CC2CC2)c2ccc3ncc(-c4ccncc4)nc3c2)c1 [Compound 89] | 1.91 µM | <5 | <5 | <5 | 105 °C | > 10 µM | – | – | – | – | – | – | –
COc1cc(OC)cc(N(CC2CC2)c2ccc3ncc(-c4ccc(OC)nc4)nc3c2)c1 [Compound 91] | > 10 µM | <5 | <5 | <5 | 116 °C | > 10 µM | – | – | – | – | – | – | –
COc1cc(OC)cc(N(CC2CC2)c2ccc3ncc(-c4ccc(N)nc4)nc3c2)c1 [Compound 94] | 2.14 µM | – | – | – | 185 °C | – | <5 | <5 | <5 | <5 | > 10 µM | – | –
COc1cc(OC)cc(N(CC2CC2)c2ccc3ncc(-c4ccccc4)nc3c2)c1 [Compound 119] | > 1 µM | – | – | – | 84 °C | – | – | <5 | – | <5 | – | – | –
COc1cc(OC)cc(N(CCCO)c2ccc3ncc(-c4cnc(OC)nc4)nc3c2)c1 [Compound 141] | > 1 µM | – | – | – | – | – | – | <5 | – | – | – | > 10 µM | > 10 µM
